Reference: PubChem BioAssay (NCI)
“And” between values parts separate entries of the source, which are not always exact repeats. Equal values may be shown once.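 Grown in 96-well plates, cells were treated for 48 hours with each compound at five concentrations. Insufficient inhibition: endpoint recorded as highest concentration tested. Here, GI50 denotes the concentration required for 50% inhibition of growth. TGI denotes the concentration required for complete inhibition of growth.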

Assays:
Experiment in all cases: DTP human tumour cell line panel, 48 h
[1] = tested on: LXFL 529 NSCLC
[2] = tested on: DMS 273 small cell lung
[3] = tested on: SNB-78 CNS
[4] = tested on: HOP-18 NSCLC
[5] = tested on: M19-MEL melanoma
[6] = tested on: DLD-1 colon
[7] = tested on: XF 498 CNS
[8] = tested on: DU-145 prostate
[9] = tested on: PC-3 prostate
[10] = tested on: HS 578T breast

SMILES: CN(C)CC/C(=N\Nc1ccc(Cl)c(Cl)c1)c1ccccc1
- TGI [1]: 2.9 µM
- TGI [2]: 3.23 µM
- TGI [3]: 5.65 µM
- TGI [4]: 5.76 µM
- TGI [5]: 3.51 µM
- TGI [6]: 10 µM

SMILES: Cc1ccccc1-c1c(N)nc(N)nc1C(=O)Nc1nccs1
- TGI [1]: > 100 µM
- TGI [7]: > 100 µM
- TGI [2]: > 100 µM
- TGI [3]: > 100 µM
- TGI [4]: > 100 µM
- TGI [5]: > 100 µM
- TGI [6]: > 100 µM

SMILES: Nc1nc(N)c(N=O)c(Nc2ccc(I)cc2)n1
- TGI [1]: 60.6 µM
- TGI [2]: 49.7 µM
- TGI [3]: 66.6 µM
- TGI [5]: > 100 µM
- TGI [6]: 21.6 µM

SMILES: CC(C)(C)OC(=O)NC1CCC[C@H]1O (some centres undefined)
- TGI [1]: > 100 µM
- TGI [7]: > 100 µM
- TGI [2]: > 100 µM
- TGI [3]: > 100 µM
- TGI [5]: > 100 µM
- TGI [6]: > 100 µM

SMILES: CC(=O)Nc1ccccc1-c1cnc2ccccc2n1
- TGI [1]: > 100 µM
- TGI [7]: > 100 µM
- TGI [3]: > 100 µM
- TGI [4]: > 100 µM
- TGI [5]: > 100 µM
- TGI [6]: > 100 µM

SMILES: Nc1ncnc2c(C3OC(CO)C(O)C3O)[nH]nc12 (centres undefined)
- GI50 [8]: 0.0125 µM
- TGI [8]: 0.278 µM
- TGI [7]: 1.34 µM
- GI50 [9]: 0.0474 µM
- TGI [9]: 8.97 µM
- TGI [2]: 1.58 µM
- TGI [3]: 40.4 µM
- TGI [4]: 0.144 µM
- GI50 [10]: 0.533 µM
- TGI [10]: 5.34 µM
- TGI [5]: 80.5 µM
- TGI [6]: 10.8 µM

SMILES: CC(=O)OC1C/C(C)=C/CCC(C)/C=C/C2(C)CCC(C(C)(C)O)C12 (centres undefined)
- TGI [1]: > 100 µM
- TGI [7]: > 100 µM
- TGI [2]: > 100 µM
- TGI [3]: > 100 µM
- TGI [4]: > 100 µM
- TGI [5]: 88.6 µM
- TGI [6]: > 100 µM

SMILES: NC(=S)NNC(=O)CCC(=O)Nc1ccc(Cl)cc1Cl
- TGI [1]: 86.9 µM
- TGI [2]: > 100 µM
- TGI [3]: > 100 µM
- TGI [5]: > 100 µM
- TGI [6]: > 100 µM

SMILES: O=C1[C@@H]2C3SC(c4ccccc43)[C@@H]2C(=O)N1c1ccccc1
- TGI [1]: > 100 µM
- TGI [7]: > 100 µM
- TGI [2]: > 100 µM
- TGI [3]: > 100 µM
- TGI [4]: > 100 µM
- TGI [5]: > 100 µM
- TGI [6]: > 100 µM

SMILES: CC(=O)C1C(=O)C(=O)N(c2ccccc2N2C(=O)C(=O)C(C(C)=O)C2=O)C1=O (centres undefined)
- TGI [1]: > 100 µM
- TGI [3]: > 100 µM
- TGI [4]: > 100 µM
- TGI [5]: > 100 µM
- TGI [6]: > 100 µM

SMILES: Nc1ncnc2c(C3OC(CO)C(O)C3O)scc12 (centres undefined)
- GI50 [1]: 0.365 µM
- TGI [1]: 12.9 µM
- TGI [7]: 0.353 µM and 0.581 µM
- TGI [2]: 0.151 µM and 0.11 µM
- TGI [4]: 4.54 µM
- GI50 [5]: 0.147 µM
- TGI [5]: 3.4 µM and 2.31 µM

SMILES: CC(=O)OCC1OC(n2c(=O)n(-c3ccccc3)c(=O)c3cc(Br)cc(Br)c32)C(OC(C)=O)C(OC(C)=O)C1OC(C)=O (centres undefined)
- TGI [1]: > 100 µM
- TGI [7]: > 100 µM
- TGI [2]: > 100 µM
- TGI [3]: > 100 µM
- TGI [4]: > 100 µM
- TGI [5]: > 100 µM
- TGI [6]: > 100 µM

SMILES: CCCCCCCCCC1C(C)c2c([nH]c3ccccc23)C2C(=O)N(c3ccccc3)C(=O)C21 (centres undefined)
- TGI [1]: 50.4 µM
- TGI [7]: 23.2 µM
- TGI [2]: 25 µM
- TGI [3]: > 100 µM
- TGI [6]: 30.2 µM

SMILES: COc1c(NC(=O)CC(C)=O)[c]([Hg][O]C(C)=O)c(OC)c(Cl)[c]1[Hg][O]C(C)=O
- GI50 [1]: 2.63 µM
- TGI [1]: 11.1 µM
- GI50 [7]: 2.55 µM
- TGI [7]: 6.41 µM
- GI50 [2]: 16.4 µM
- TGI [2]: 31.9 µM
- GI50 [3]: 15.5 µM
- TGI [3]: 34.2 µM
- GI50 [4]: 13.6 µM
- TGI [4]: 26.5 µM
- GI50 [5]: 12.6 µM
- TGI [5]: 25.1 µM
- GI50 [6]: 14.2 µM
- TGI [6]: 32.6 µM

SMILES: COc1cc(C(=O)C/C(CCC(=O)Nc2ccc(Cl)cc2Cl)=N/NC(=O)C(N)=O)ccc1O
- TGI [1]: > 100 µM
- TGI [7]: > 100 µM
- TGI [2]: > 100 µM
- TGI [3]: > 100 µM
- TGI [4]: > 100 µM
- TGI [5]: > 100 µM
- TGI [6]: > 100 µM

SMILES: COc1cc2c(c(OC)c1OC)-c1ccc(SC)c(=O)cc1[C@@H](NCc1cccc(C#N)c1)CC2
- GI50 [1]: < 0.0075 µM
- TGI [1]: > 75 µM
- GI50 [7]: < 0.0075 µM
- TGI [7]: < 0.0075 µM
- GI50 [2]: < 0.0075 µM
- TGI [2]: < 0.0075 µM
- GI50 [5]: < 0.0075 µM
- TGI [5]: 42.4 µM
- GI50 [6]: < 0.0075 µM
- TGI [6]: > 75 µM

SMILES: NCCCC1NC(=O)/C(=C(O)/C=C/C2CCC[C@@H]2CC2SCCS2)C1=O (some centres undefined)
- TGI [1]: > 100 µM
- TGI [2]: > 100 µM
- TGI [4]: > 100 µM
- TGI [5]: > 100 µM
- TGI [6]: > 100 µM

SMILES: Cc1ccc(C2(O)CC(c3ccc([N+](=O)[O-])o3)=NN2C(=O)COc2ccccc2Cl)cc1 (centres undefined)
- TGI [1]: 49.2 µM
- TGI [7]: > 100 µM
- TGI [2]: > 100 µM
- TGI [3]: > 100 µM
- TGI [4]: > 100 µM
- TGI [5]: 33.5 µM
- TGI [6]: > 100 µM

SMILES: O=C(CC(=O)Nc1ccccc1O)Nc1ccccc1O
- TGI [1]: 63.9 µM
- TGI [2]: > 100 µM
- TGI [3]: > 100 µM
- TGI [4]: 34.2 µM
- TGI [5]: 28.4 µM
- TGI [6]: 40.3 µM
